Laboratory results from US9945845B2, “Methods of screening using amphibians” (priority 2009, dated 2018).
“Also recorded” adds a separate entry of the source. Read-outs that look alike come from different tables or passages of the source.

Tests used:
LEC [1] = experiment: cells; type: cell-based, human; details: for activity at 1 µM: Homo sapiens
Method: (§1) Human umbilical vein endothelial cells (HUVEC) were purchased from PromoCell. […] HUVEC and LEC were cultured in endothelial basal medium EBM (Cambrex) supplemented with 20% fetal bovine serum (Invitrogen), antibiotic-antimycotics (100 U/ml penicillin, 100 μg/ml streptomycin, 250 ng/ml amphotericin; Invitrogen). 2 mM L-glutamine (Invitrogen), 10 μg/ml hydrocortisone (Fluka) and 25 μg/ml N^6,2′-O-dibutyryladenosine 3′,5′-cyclic monophosphate sodium salt (Fluka) for up to eleven passages.
(§2) The effect of the selected chemicals on the formation of tube-like structures was performed as follows. […] After overnight incubation at 37° C. the treated cell cultures were fixed with 4% paraformaldehyde. Each chemical treatment was performed in triplicate and the experiment was repeated at least three times. Three representative images of hotspots with tube-like structures were taken per well using a digital camera (AxioCam MRm, Carl Zeiss) mounted on an inverted microscope (Axiovert 200M, Carl Zeiss). The length of the tube-like structures was measured using the IPLab software (BD Biosciences). For each experimental condition, results are represented as average total tube length (μm) per area (three image fields).
(§3) The effects of the selected compounds on endothelial tube formation was assessed after over treatment of LEC and HUVEC cultures at a compound concentration of 1 μM in 0.1% DMSO. The length of the tube-like structures was measured using the IPLab software.

HUVEC [2] = experiment: HUVEC tube formation assay; type: cell-based, human; details: 1 μM in 0.1% DMSO; for activity at 1 µM: Homo sapiens, HUVEC
Method: as §1, §2, §3

HUVEC [3] = experiment: HUVEC cell proliferation assay; type: cell-based, human; details: 10 μM in 0.1% DMSO, 48 hours; for activity at 10 µM: Homo sapiens, HUVEC, 48 h, read-out: HUVEC proliferation
Method: as §1
(§4) The intensity of fluorescence, which is proportional to the number of viable cells, was measured using a microplate reader (SpectraMax Gemini EM; Molecular Devices). The chemical treatments were performed in five replicates.
(§5) The cell proliferation assays were performed by treating the endothelial cell cultures with compounds at a screening dose of 10 μM in 0.1% DMSO for 48 hours (FIG. 6a; Table 10).

[4] = system: blood vessel development and/or lymphangiogenesis in Xenopus embryos; type: in vivo, Xenopus laevis; details: for blood vessel development phenotype (apj expression, in words): 20 μM from stage 31, fixed at stage 35/36; for ISV phenotype: intersomitic vessels; for PCV phenotype: posterior cardinal vein; for VVN phenotype: vitelline vein network
Method: All chemicals were purchased from Sigma and 10-mM stock solutions in DMSO were prepared. Chemicals were used at a final concentration of 20 μM in screening medium to treat homozygous albino Xenopus embryos, which lack natural pigmentation. Chemical treatments of embryos (n=7 per well) was initiated at stage 31 (37 hpf) and terminated at stages 35/36 (50 hpf) or 42 (80 hpf). Embryos were fixed in 4% paraformaldehyde and processed for whole mount in situ hybridization.
Where albino embryos were used, the bleaching step was omitted. Semi-automated whole mount in situ hybridizations were performed using the Biolane HTI machine (Hölle & Hüttner AG, Germany). […] Images were captured using a stereomicroscope (SteREO Lumar V12; Carl Zeiss) equipped with a digital camera (AxioCam Color; Carl Zeiss). Composite figures were organized and labeled using Adobe Photoshop CS2 and Adobe Illustrator CS software.
Edema formation or late-stage lethality may result from excretory system defects, (cardio)vascular and/or lymphatic vascular pathologies. […] Embryos were fixed for in situ hybridization either at stage 35/36 to analyze vasculogenesis and intersomitic vein angiogenesis defects or at stage 42 to evaluate possible defects in lymph vessel development (FIGS. 3-5).

LEC [5] = experiment: LEC cell proliferation assay; type: cell-based, human; details: 10 μM in 0.1% DMSO, 48 hours; for activity at 10 µM: Homo sapiens, 48 h, read-out: LEC proliferation
Method: as §1, §4, §5

Xenopus embryos = details: for Embr. phen.: embryonic phenotype in the primary screen; for Lethality: — = no stage of lethality given; for Onset (NF): onset of edema; for Type of edema Ventral: ‡ = edemas also detected in the gut
How it was run: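 Stage 31 (37 hpf) Xenopus embryos, five per well, exposed to 20 µM compound in 1% DMSO at 23 °C for 4 days. Edema, lethality and other external phenotypes were scored daily by two investigators at stages 39, 41, 45 and 47.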

[6] = overnight, read-out: HUVEC tube formation
[7] = read-out: HUVEC tube formation (tube length)
[8] = 20 μM, 1% DMSO, treatment from stage 31
[9] = compounds causing lethality, 20 μM, 1% DMSO, treatment from stage 31, Nieuwkoop & Faber stage
[10] = 1 μM in 0.1% DMSO, overnight, read-out: LEC tube formation
[11] = 1 μM in 0.1% DMSO, read-out: LEC tube formation (tube length)
[12] = compounds causing edema, 20 μM, 1% DMSO, treatment from stage 31, scored to stage 47
[13] = 20 μM, 1% DMSO, treatment from stage 31, Nieuwkoop & Faber stage

Compound: CC[C@@H]1/C=C/C=C/C[C@H](C)[C@H](O)[C@](C)(O)C(=O)[C@H](C)[C@@H](O)[C@H](C)C(=O)[C@H](C)[C@@H](O)[C@H](C)/C=C/C(=O)O[C@H]2[C@@H](C)[C@@H](CC1)O[C@@]1(CC[C@@H](C)[C@@H](C[C@H](C)O)O1)[C@@H]2C [oligomycin A]
- effect on LEC tube formation (in words) (LEC [1]; 1 μM in 0.1% DMSO): preferentially blocked tube formation in LEC rather than HUVEC cultures

Compound: CC(C)c1ccc2c(c1)c(SC(C)(C)C)c(CC(C)(C)C(=O)[O-])n2Cc1ccc(Cl)cc1.[Na+] [MK-886, 3[3-tert-Butylthio-1-(4-chlorobenzyl)-5-isopropyl-1H-indol-2-yl]-2,2-dimethylpropionic acid, sodium salt]
- activity at 1 µM (HUVEC [2]; [6]): 50 to 85%
- activity at 1 µM (HUVEC [2]; [7]): 50 to 85%
- activity at 10 µM (HUVEC [3]): 115 to 150%
- blood vessel development phenotype (apj expression, in words) [4]: hypoplasia of the VVN
- Phenotype class in vivo ([4]; Xenopus embryos, 20 μM, vascular phenotype): VVN hypoplasia
- ISV phenotype ([4]; Xenopus embryos): normal
- PCV phenotype ([4]; Xenopus embryos): normal
- VVN phenotype ([4]; Xenopus embryos): hypoplastic
- activity at 10 µM (LEC [5]): 85 to 115%
- edema or other phenotype in compound-treated Xenopus embryos/tadpoles (in words) (Xenopus embryos; [8]): causing lethality
- Lethality (NF) (Xenopus embryos; [9]): 39 NF
- activity at 1 µM (LEC [1]; [10]): 50 to 85%
- activity at 1 µM (LEC [1]; [11]): 50 to 85%

Compound: O=C1Nc2ccc(I)cc2C1=Cc1cc(Br)c(O)c(Br)c1 [GW5074, 3-(3,5-Dibromo-4-hydroxybenzylidine-5-iodo-1,3-dihydro-indol-2-one)]
- HUVEC tube formation (HUVEC [2]; overnight): O (O, inactive or marginal effects (85-115% of control);)
- HUVEC proliferation (HUVEC [3]): O (O, inactive or marginal effects (85-115% of control);)
- blood vessel development phenotype (apj expression, in words) [4]: promoting ectopic, premature angiogenesis; also recorded: the VVN was dysplastic
- ISV phenotype ([4]; Xenopus embryos): ectopic
- PCV phenotype ([4]; Xenopus embryos): normal
- VVN phenotype ([4]; Xenopus embryos): dyspiastic
- Lethality (NF) (Xenopus embryos; [12]): 41/42
- Embr. phen. (Xenopus embryos): EDE
- Type of edema Pericordial (Xenopus embryos; embryonic stage): 33/34
- Lethality (Xenopus embryos; embryonic stage): 41/42
- Onset (NF) (Xenopus embryos; [13]): 33/34
- effect on LEC tube formation (in words) (LEC [1]; 1 μM in 0.1% DMSO): preferentially blocked tube formation in LEC rather than HUVEC cultures
- LEC tube formation (LEC [1]; 1 μM in 0.1% DMSO, overnight): − (−, moderate inhibition (50-85% of control):)

Compound: CCOC(=O)C1=C(C)NC(C)=C(C(=O)OC)C1c1cccc(Cl)c1Cl (stereo not drawn) [Felodipine]
- activity at 1 µM (HUVEC [2]; [6]): 50 to 85%
- activity at 10 µM (HUVEC [3]): 85 to 115%
- activity at 10 µM (LEC [5]): 85 to 115%
- Lethality (NF) (Xenopus embryos; [12]): 45 NF
- Type of edema Pericordial (Xenopus embryos; embryonic stage): 41/42
- Type of edema Pronephric (Xenopus embryos; embryonic stage): 41/42
- Lethality (Xenopus embryos; embryonic stage): 45 embryonic stages according to Nieuwkoop and Faber (NF)
- Type of edema Ventral (Xenopus embryos; embryonic stage): 41/42
- Onset (NF) (Xenopus embryos; [13]): 41/42
- activity at 1 µM (LEC [1]; [10]): 85 to 115%

Compound: Oc1c2ccccc2c2c3c(cccc13)N=N2 [SP600125, 1,9-Pyrazoloanthrone]
- activity at 1 µM (HUVEC [2]; [6]): 85 to 115%
- activity at 1 µM (HUVEC [2]; [7]): 110%
- activity at 10 µM (HUVEC [3]): 85 to 115%
- activity at 10 µM (LEC [5]): 85 to 115%
- Lethality (NF) (Xenopus embryos; [9]): 41 NF
- activity at 1 µM (LEC [1]; [10]): 50 to 85%
- activity at 1 µM (LEC [1]; [11]): 59%

Compound: Cl.c1ccc(CN2CCC3(CCCc4ccccc43)CC2)cc1 [L-687, 384 hydrochloride]
- HUVEC tube formation (HUVEC [2]; overnight): − (−, moderate inhibition (50-85% of control):)
- HUVEC proliferation (HUVEC [3]): + (+, moderate promotion (>115-150% of control).)
- blood vessel development phenotype (apj expression, in words) [4]: did not affect vascular development
- LEC proliferation (LEC [5]): O (O, inactive or marginal effects (85-115% of control);)
- LEC tube formation (LEC [1]; 1 μM in 0.1% DMSO, overnight): − (−, moderate inhibition (50-85% of control):)

Compound: CN(C)c1cc2c(Nc3ccc4c(cnn4Cc4ccccc4)c3)ncnc2cn1 [GW2974, N4-(1-Benzyl-1H-indazol-5-yl)-N6,N6-dimethyl-pyrido[3,4-d)pyrimidine4-4,6-diamine]
- HUVEC tube formation (HUVEC [2]; overnight): − (−, moderate inhibition (50-85% of control):)
- lymph vessel development phenotype (vegfr3 expression, in words) ([4]; 20 μM from stage 31, fixed at stage 42): inhibiting preferentially lymphatic vascular development; also recorded: lymphangiogenesis was largely suppressed
- Blood vessel phenotype ([4]; Xenopus embryos): normal
- ALH phenotype ([4]; anterior lymph heart, Xenopus embryos): stunted
- ALS phenotype ([4]; anterior lymph sac, Xenopus embryos): impaired
- PLV phenotype ([4]; posterior lymph vessels, Xenopus embryos): hypoplastic
- edema or other phenotype in compound-treated Xenopus embryos/tadpoles (in words) (Xenopus embryos; [8]): enlarged lymph hearts
- Lethality (NF) (Xenopus embryos; [12]): 47 NF
- Embr. phen. (Xenopus embryos): EDE
- Lymph heart enlargement (Xenopus embryos; embryonic stage): 45 embryonic stages according to Nieuwkoop and Faber (NF)
- Type of edema Pericordial (Xenopus embryos; embryonic stage): 41/42
- Type of edema Periocular (Xenopus embryos; embryonic stage, * = causing bulging eyes, # = bilateral, causing narrow-set eyes): 41/42
- Lethality (Xenopus embryos; embryonic stage): 47 embryonic stages according to Nieuwkoop and Faber (NF)
- Type of edema Ventral (Xenopus embryos; embryonic stage): 41/42
- Onset (NF) (Xenopus embryos; [13]): 41/42
- LEC tube formation (LEC [1]; 1 μM in 0.1% DMSO, overnight): − (−, moderate inhibition (50-85% of control):)

Compound: O=Nc1c(-c2c(O)[nH]c3ccccc23)[nH]c2ccccc12 [Indirubin-3′-oxime]
- activity at 1 µM (HUVEC [2]; [6]): 50 to 85%
- activity at 10 µM (HUVEC [3]): 50 to 85%
- activity at 10 µM (LEC [5]): 85 to 115%
- Lethality (NF) (Xenopus embryos; Xenopus laevis, in vivo): 45 NF
- scored in the phenotypic Xenopus screens (Xenopus embryos; in vivo): active
- activity at 1 µM (LEC [1]; read-out: LEC tube formation): 85 to 115%

Compound: C#CCN1C(C)=C(C(=O)OC)C(c2cccc([N+](=O)[O-])c2)C(C(=O)OCC)=C1C (stereo not drawn) [MRS 1845, N-Propargylnitrendipene]
- HUVEC tube formation (HUVEC [2]; overnight): O (O, inactive or marginal effects (85-115% of control);)
- LEC proliferation (LEC [5]): O (O, inactive or marginal effects (85-115% of control);)
- edema or other phenotype in compound-treated Xenopus embryos/tadpoles (in words) (Xenopus embryos; [8]): enlarged lymph hearts
- Lethality (NF) (Xenopus embryos; [12]): 45 NF
- Lymph heart enlargement (Xenopus embryos; embryonic stage): 41/42
- Type of edema Pericordial (Xenopus embryos; embryonic stage): 41/42
- Type of edema Pronephric (Xenopus embryos; embryonic stage): 41/42
- Lethality (Xenopus embryos; embryonic stage): 45 embryonic stages according to Nieuwkoop and Faber (NF)
- Type of edema Ventral (Xenopus embryos; embryonic stage): 41/42
- Onset (NF) (Xenopus embryos; [13]): 41/42
- effect on LEC tube formation (in words) (LEC [1]; 1 μM in 0.1% DMSO): preferentially blocked tube formation in LEC rather than HUVEC cultures
- LEC tube formation (LEC [1]; 1 μM in 0.1% DMSO, overnight): − (−, moderate inhibition (50-85% of control):)

Compound: CC1=C(/C=C/C(C)=C/C=C/C(C)=C/C(=O)O)C(C)(C)CCC1 [Retinoic acid]
- activity at 1 µM (HUVEC [2]; [6]): 50 to 85%
- activity at 1 µM (HUVEC [2]; [7]): 50 to 85%
- HUVEC proliferation (HUVEC [3]): + (+, moderate promotion (>115-150% of control).)
- activity at 10 µM (HUVEC [3]): 115 to 150%
- LEC proliferation (LEC [5]): + (+, moderate promotion (>115-150% of control).)
- activity at 10 µM (LEC [5]): 115 to 150%
- Lethality (NF) (Xenopus embryos; [12]): 40 NF
- Type of edema Proctodeal (Xenopus embryos; embryonic stage): 40 embryonic stages according to Nieuwkoop and Faber (NF)
- Type of edema Pronephric (Xenopus embryos; embryonic stage): 39 embryonic stages according to Nieuwkoop and Faber (NF)
- Type of edema Cerebral (Xenopus embryos; embryonic stage, + = cerebral edema extending dorso-anteriorly and displacing the eyes): 39+ embryonic stages according to Nieuwkoop and Faber (NF)
- Lethality (Xenopus embryos; embryonic stage): 39 embryonic stages according to Nieuwkoop and Faber (NF)
- activity at 1 µM (LEC [1]; [10]): 50 to 85%
- activity at 1 µM (LEC [1]; [11]): 50 to 85%
